{
  "source": "patent US12502363B2",
  "about": "“Ketamine and ketamine/nap for treatment of ADNP syndrome and related neurological conditions” (ADNP Kids Research Foundation, priority 2019, dated 2025)",
  "origin": "cited, not measured here",
  "key": {"[1]": {"system": "ADNP gene expression in the somatosensory cortex", "conditions": "somatosensory cortex of post-natal day 7 rats, anesthetic dose of ketamine (20 mg/kg), microarray"}, "ADNP": {"system": "ADNP", "conditions": "5 mg/kg ketamine, healthy rats without ADNP mutations"}, "[2]": {"system": "activated caspase-3 (AC3)", "conditions": "anesthetic doses of ketamine"}},
  "data": [
    {"smiles": "CNC1(c2ccccc2Cl)CCCCC1=O", "note": "(stereo not drawn) [ketamine, Ketamine]", "values": [
      {"measurement": "ADNP gene expression", "setting": "[1]", "result": "increases significantly"},
      {"measurement": "ADNP in the Fasciola Cinereum (FC) and SSC layers II/III", "setting": "ADNP", "result": "increased ADNP"},
      {"measurement": "levels of pro-apoptotic enzyme activated caspase-3 (AC3)", "setting": "[2]", "result": "increased levels"}
    ]}
  ]
}
